Reference: patent publication US20240316023A1, “BENEDIN, PIPERIDINE, 2-BENZHYDRYL-3-HYDROXY-N-METHYL-, HYDROCHLORIDE AND DERIVATIVES THEREOF FOR USE IN TREATING KLEINE-LEVIN SYNDROME” (priority 2021, published 2024)

How the values were obtained:
[1] = molecular target: T1, M2 (h) (antagonist radioligand) (Homo sapiens, UniProt P08172); assay: Radioligand binding panel (Eurofins/CEREP), M2; conditions: 10^−5 M; % inhibition of control specific binding; read-out: % Inhibition at 10^−5M Benedin
T1 construct: CEREP (Eurofins, France), contract panel
T1 sequence (P08172 1-466): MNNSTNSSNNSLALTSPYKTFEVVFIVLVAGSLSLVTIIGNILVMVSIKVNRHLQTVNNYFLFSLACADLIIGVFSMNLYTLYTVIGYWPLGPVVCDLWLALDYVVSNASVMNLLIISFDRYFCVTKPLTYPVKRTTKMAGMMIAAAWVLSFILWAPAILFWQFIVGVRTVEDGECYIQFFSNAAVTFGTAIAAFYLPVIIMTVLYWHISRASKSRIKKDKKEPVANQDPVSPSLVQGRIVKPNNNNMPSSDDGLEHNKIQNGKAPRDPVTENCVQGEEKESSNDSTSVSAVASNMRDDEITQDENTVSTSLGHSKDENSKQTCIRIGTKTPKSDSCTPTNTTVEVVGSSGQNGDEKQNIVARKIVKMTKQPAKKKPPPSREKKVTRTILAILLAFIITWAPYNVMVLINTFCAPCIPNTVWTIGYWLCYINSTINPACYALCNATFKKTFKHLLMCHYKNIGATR
Procedure: (§1) Benedin was tested at 10^−5 M, calculated as a % inhibition of control specific binding of a radioactively labeled ligand specific for each target.
(§2) This binding profile panel was broadly defined with roughly an equal number of selective, central and peripheral therapeutically relevant targets, including native animal tissues, radioligands and specific enzymes involved in cell cycle regulation in accordance with Eurofins Standard Operating Procedure.
(§3) For radioligand binding experiments, the half maximal inhibitory concentration (IC50) and the half maximal effective concentration (EC50) values were determined (via computer software) by nonlinear regression analysis of the competition curves using Hill equation curve fitting. The inhibition constants (Ki) were calculated using the Cheng-Prusoff equation (Ki=IC50/(1+(L/KD)), where L is the concentration of radioligand in the assay, and KD is the affinity of the radioligand for the receptor.^60
(§4) The results are expressed as a % control specific binding ([measured specific binding/control specific binding]×100) and as a % inhibition of control specific binding (100−[(measured specific binding/control specific binding)×100] obtained in the presence of the test compounds. […]

[2] = molecular target: T2, NET (h) (antagonist radioligand) (Homo sapiens, UniProt P23975); assay: Radioligand binding panel (Eurofins/CEREP), NET; conditions: % inhibition of control specific binding
T2 construct: CEREP (Eurofins, France), contract panel
Procedure: as §1, §2, §3, §4

[3] = molecular target: T3, mu (h) (MOP) (agonist radioligand) (Homo sapiens, UniProt P35372); assay: Radioligand binding panel (Eurofins/CEREP), mu opioid; conditions: 10^−5 M; % inhibition of control specific binding; read-out: % Inhibition at 10^−5M Benedin
T3 construct: CEREP (Eurofins, France), contract panel
Procedure: as §1, §2, §3, §4

T2 sequence (P23975 whole entry): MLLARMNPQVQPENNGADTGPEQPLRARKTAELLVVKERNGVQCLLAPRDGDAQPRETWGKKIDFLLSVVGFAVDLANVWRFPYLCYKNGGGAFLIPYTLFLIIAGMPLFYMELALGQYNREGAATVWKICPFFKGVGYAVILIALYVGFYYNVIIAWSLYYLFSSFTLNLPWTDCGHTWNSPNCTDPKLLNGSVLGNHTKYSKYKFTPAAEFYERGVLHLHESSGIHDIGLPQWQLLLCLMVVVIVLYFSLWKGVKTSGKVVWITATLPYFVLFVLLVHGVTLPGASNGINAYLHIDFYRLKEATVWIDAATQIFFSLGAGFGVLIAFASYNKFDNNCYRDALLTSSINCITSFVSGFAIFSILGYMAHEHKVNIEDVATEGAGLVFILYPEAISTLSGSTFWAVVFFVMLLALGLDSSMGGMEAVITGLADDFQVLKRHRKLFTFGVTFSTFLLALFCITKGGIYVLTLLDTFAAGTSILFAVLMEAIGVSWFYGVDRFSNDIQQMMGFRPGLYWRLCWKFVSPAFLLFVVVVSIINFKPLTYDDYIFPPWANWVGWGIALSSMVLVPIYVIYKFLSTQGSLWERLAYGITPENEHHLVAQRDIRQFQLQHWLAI
T3 sequence (P35372 whole entry): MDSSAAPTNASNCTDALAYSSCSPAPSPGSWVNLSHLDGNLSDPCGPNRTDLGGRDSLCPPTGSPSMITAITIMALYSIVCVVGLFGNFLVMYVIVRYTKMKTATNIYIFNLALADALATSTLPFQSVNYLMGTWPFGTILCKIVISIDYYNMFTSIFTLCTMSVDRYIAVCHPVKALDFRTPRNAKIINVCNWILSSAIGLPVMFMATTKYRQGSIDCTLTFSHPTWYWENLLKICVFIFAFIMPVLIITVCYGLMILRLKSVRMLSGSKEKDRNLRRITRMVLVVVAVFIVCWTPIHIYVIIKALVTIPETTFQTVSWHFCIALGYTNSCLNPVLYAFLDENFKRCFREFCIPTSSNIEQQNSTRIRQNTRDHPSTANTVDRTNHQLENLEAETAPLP

CN1CCCC(O)C1C(c1ccccc1)c1ccccc1 (stereo not shown) [Benedin, 2-benzhydryl-3-hydroxy-N-methyl-piperidine]
inhibition at 10 µM [1]: 65%
inhibition at 10 µM ([2]; 10^−5 M, read-out: % Inhibition at 10^−5M Benedin): 71.9%
% Inhibition at 10^−5M Benedin [2]: appreciable potencies
inhibition at 10 µM [3]: 24.4%
